From patent US9408385B2, “Pesticidal composition comprising a pyridylethylbenzamide derivative and an insecticide compound” (priority 2006, dated 2016)
Values joined by “and” are separate entries in the source; they are usually repeats but may differ in a detail not shown here. Equal entries are not always repeated. Where two headings read alike, the source gives them in different places.

Assays:
[1] = test system: Phaedon cochleariae larvae; assay: Efficacy against Phaedon cochleariae larvae, cabbage leaf dip test; conditions: for mortality at 1 ppm: read-out: Mortality in % after 4d, dose 1 ppm
Myzus persicae = assay: Efficacy against Myzus persicae, cabbage leaf dip test; type: in vivo; conditions: foliar
From the text: (§1) Solvent: 7 parts by weight of dimethylformamide

Phytophthora cryptogea = assay: Efficacy against Phytophthora cryptogea (Test in vitro - Microtest); conditions: dose 0.03 ppm; 4 days of incubation, optical density
Protocol: The microtest was performed in liquid medium with potato-dextrose broth (PDB) using microtitre plates.
A mycelium suspension of Phytophthora cryptogea was used for inoculation. After 4 days of incubation by darkness under shaking (10 Hrz), the optical density in each cavity was evaluated with the aid of a microtitre plate reader.

Gibberella zeae = type: cell-based; conditions: dose 3 ppm; 4 days of incubation, optical density
Aphis gossypii = assay: Efficacy against Aphis gossypii, cotton leaf dip test; type: in vivo; conditions: foliar, 24 h, after 1 d
From the text: as §1

Pyricularia oryzae = type: cell-based; conditions: dose 0.015 ppm; 3 days of incubation
[2] = 24 h, after 1 d, read-out: Mortality in % after 1d
[3] = 144 h, after 6 d, read-out: Mortality in % after 6d
[4] = Phaedon cochleariae, in Brassica oleracea, foliar, 96 h, read-out: Mortality in % after 4d, dose 4 ppm, after 4 d
[5] = Phaedon cochleariae, in Brassica oleracea, foliar, 144 h, read-out: Mortality in % after 6d, dose 4 ppm, after 6 d
[6] = Phaedon cochleariae, in Brassica oleracea, foliar, 96 h, after 4 d
[7] = Phaedon cochleariae, in Brassica oleracea, foliar, 144 h, read-out: Mortality in % after 6d, dose 200 ppm, after 6 d

“5-fluoro-1,3-dimethyl-N-[2-(1,3-dimethyl)-but-2-ol-yl]-1H-pyrazole-4-carboxamide [Compound A]” was tested, and the “Mortality in % after 4d” value ([1]; dose 200 ppm, after 4 d) was 0%.

Work on `CN/C(=N\[N+](=O)[O-])NCc1cnc(Cl)s1` [Clothianidin, clothianidin] yielded a mortality at 0.16 ppm (Myzus persicae; [2]) of 10%, a mortality at 0.8 ppm (Myzus persicae; [2]) of 70% and a mortality at 0.16 ppm (Myzus persicae; [3]) of 30%. The mortality at 0.8 ppm (Myzus persicae; [3]) was 55%, the mortality at 4 ppm [1, 4] was 60% and the mortality at 0.8 ppm ([1]; Phaedon cochleariae, in Brassica oleracea, foliar, 144 h, read-out: Mortality in % after 6d, dose 0.8 ppm, after 6 d) was 0%. For the same compound, the mortality at 4 ppm [1, 5] was 20% and the “Mortality in % after 6d” value ([1]; dose 4 ppm, after 6 d) was 40%.

Work on `O=C(NCCc1ncc(C(F)(F)F)cc1Cl)c1ccccc1C(F)(F)F` [Compound 1, N-{2-[3-chloro-5-(trifluoromethyl)-2-pyridinyl]ethyl}-2-trifluoromethylbenzamide] yielded a mortality at 20 ppm (Myzus persicae; 24 h, dose 20 ppm, after 1 d) of 0%, a mortality at 200 ppm (Myzus persicae; [2]) of 0% and a mortality at 200 ppm (Myzus persicae; [3]) of 0%. For the same compound, the mortality at 1 ppm [1, 6] was 0%, the mortality at 0.2 ppm ([1]; Phaedon cochleariae, in Brassica oleracea, foliar, 144 h, read-out: Mortality in % after 6d, dose 0.2 ppm, after 6 d) was 0% and the mortality at 200 ppm [1, 7] was 0%. The “Mortality in % after 4d” value ([1]; dose 200 ppm, after 4 d) was 5% and 15%, the Efficacy in % (Phytophthora cryptogea) was 13% and the Efficacy in % (Gibberella zeae) was 41%. The mortality at 200 ppm (Aphis gossypii; dose 200 ppm) was 10%.

`Nc1nc(N)nc(NC2CC2)n1` [Cyromazine, cyromazine] gave a mortality at 20 ppm ([1]; Phaedon cochleariae, in Brassica oleracea, foliar, 144 h, read-out: Mortality in % after 6d, dose 20 ppm, after 6 d) of 5%.

`CCOP(=O)(NC(C)C)Oc1ccc(SC)c(C)c1` (stereo not shown) [Fenamifos, fenamifos] was tested, and the “Mortality in % after 6d” value ([1]; dose 20 ppm, after 6 d) was 75%.

With `N#Cc1nn(-c2c(Cl)cc(C(F)(F)F)cc2Cl)c(N)c1[S+]([O-])C(F)(F)F` (stereo not shown) [Fipronil, fipronil] the mortality at 100 ppm (Aphis gossypii; dose 100 ppm) was 40%.

`N#Cc1c[nH]cc1-c1cccc2c1OC(F)(F)O2` [Fludioxonil, fludioxonil] was tested, and the mortality at 200 ppm (Myzus persicae; [2]) was 0% and the mortality at 200 ppm [1, 7] was 5%.

For `O=[N+]([O-])NC1=NCCN1Cc1ccc(Cl)nc1` [Imidacloprid, imidacloprid], the mortality at 0.16 ppm (Myzus persicae; [2]) was 30%, the mortality at 4 ppm [1, 4] was 35% and the Efficacy in % (Gibberella zeae) was 22%.

`CC(C)C1CCC(Cc2ccc(Cl)cc2)C1(O)Cn1cncn1` (stereo not shown) [Ipconazole, ipconazole] showed a mortality at 200 ppm (Myzus persicae; [2]) of 0%.

For `OC(Cc1ccccc1Cl)(Cn1nc[nH]c1=S)C1(Cl)CC1` (stereo not shown) [Prothioconazole, prothioconazole], the mortality at 200 ppm (Myzus persicae; [3]) was 0%, the mortality at 1 ppm [1, 6] was 0% and the mortality at 200 ppm ([1]; Phaedon cochleariae, in Brassica oleracea, foliar, 96 h, read-out: Mortality in % after 4d, dose 200 ppm, after 4 d) was 0%. For the same compound, the Efficacy in % (Pyricularia oryzae) was 12%.

Work on `CC1=NNC(=O)N(/N=C/c2cccnc2)C1` [Pymetrozine, pymetrozine] yielded a mortality at 0.8 ppm (Myzus persicae; [2]) of 30%.

Work on `CC(C)(C)C(O)(CCc1ccc(Cl)cc1)Cn1cncn1` (stereo not shown) [Tebuconazole, tebuconazole] yielded a mortality at 200 ppm (Myzus persicae; [3]) of 0%.

Work on `N#C/N=C1\SCCN1Cc1ccc(Cl)nc1` [Thiacloprid, thiacloprid] yielded a mortality at 4 ppm [1, 5] of 25%.

`CC(C)(C)C(O)C(Oc1ccc(Cl)cc1)n1cncn1` (stereo not shown) [Triadimenol, triadimenol] was tested, and the mortality at 200 ppm (Myzus persicae; [2]) was 10% and the mortality at 0.4 ppm ([1]; Phaedon cochleariae, in Brassica oleracea, foliar, 144 h, read-out: Mortality in % after 6d, dose 0.4 ppm, after 6 d) was 0%.

`CON=C(C(=O)OC)c1ccccc1CON=C(C)c1cccc(C(F)(F)F)c1` [Trifloxystrobin, trifloxystrobin] showed a mortality at 200 ppm (Myzus persicae; [3]) of 20%.

With spinosad the “Mortality in % after 4d” value ([1]; dose 0.8 ppm, after 4 d) was 50% and the Efficacy in % (Phytophthora cryptogea) was 5%.
